Test [1] concerns S. aureus ATCC 6538. Briefly: Monospecies bacterial biofilm inhibition, static peg assay (Calgary device, crystal violet; planktonic OD600). Type of test: cell-based, Staphylococcus aureus. How it is done:
(§1) A static peg assay, described previously ([27], [74]), was used for bacterial biofilm formation. The Calgary biofilm device consists of a platform carrying 96 polystyrene pegs (Nunc no. 445497) that fits as a microtiter plate lid, with 1 peg hanging into each microtiter plate well (Nunc no. 269789). Twofold serial dilutions of the compounds (dissolved in 100% dimethyl sulfoxide [DMSO] or ethanol) in 100 μl liquid broth (TSB diluted 1/20) per well were prepared in the microtiter plate in duplicate or triplicate with a maximum concentration of 1,600 μM and a minimum concentration of 0.8 μM. Subsequently, an overnight culture of S. Typhimurium ATCC 14028, P. aeruginosa PA14, E. coli TG1, S. epidermidis, S. aureus SH1000, or S. aureus ATCC 6538 (all grown in LB) was diluted 1:100 into TSB diluted 1/20 (or TSB for S. epidermidis, S. aureus SH1000, and S. aureus ATCC 6538), whereas overnight cultures of S. liquefaciens MG44 and B. cepacia LMG1222T were diluted 1:50 into TSB diluted 1/20. P. gingivalis ATCC 33277 cultures were diluted in TSB diluted 1/20 to have a final concentration of 1 × 10^8 cells/ml. Next, 100 μl was added to each well of the microtiter plate, resulting in a total volume of 200 μl medium per well (final concentration range of compounds, 800 μM [2% DMSO or ethanol] to 0.4 μM [0.001% DMSO or ethanol]). In the next step, the pegged lid was placed on the microtiter plate and the plate was incubated for 24 h or 48 h at 25°C or 37°C without shaking. At 37°C, the plates were placed in a sealed container with wet towels on the bottom to prevent evaporation of the growth medium. Biofilms of P. gingivalis ATCC 33277 were grown anaerobically at 37°C for 72 h. During this incubation period, biofilms were formed on the surface of the pegs. After incubation, the optical density at 600 nm (OD600) for the planktonic cells in the microtiter plate was measured using a Synergy MX multimode reader (BioTek, Winooski, VT). This gives a first indication of the effect of the compounds on planktonic growth. For quantification of biofilm formation, the pegs were washed once in 200 μl PBS. The remaining attached bacteria were stained for 30 min with 200 μl 0.1% (wt/vol) crystal violet in an isopropanol-methanol-PBS solution (1:1:18, vol/vol). Excess stain was rinsed off by placing the pegs in a 96-well plate filled with 200 μl distilled water per well. After air drying of the pegs (30 min), the dye bound to the adherent biofilm was extracted with 30% glacial acetic acid (200 μl per well of a 96-well plate). The optical density at 570 nm (OD570) of each well was measured using a Synergy MX multimode reader (BioTek, Winooski, VT). The concentration of each compound needed to inhibit biofilm formation by 50% (BIC50) and the concentration of each compound needed to inhibit planktonic growth by 50% (IC50) were determined from the concentration gradient by using nonlinear curve fitting (GraphPad Prism software, version 5; GraphPad Software, Inc., La Jolla, CA). In the same assay, the effect on planktonic growth was evaluated. The activity was considered biofilm specific if the BIC50 was at least two times lower than the IC50. Data represent the means from at least 3 technical repeats with the corresponding 95% confidence intervals (provided in the supplemental material).

For test [2], the system named is P. aeruginosa PA14. Briefly: Monospecies bacterial biofilm inhibition, static peg assay. The note with it: Pseudomonas aeruginosa. The format is cell-based, Pseudomonas aeruginosa. On the procedure: as §1
The subject of test [3] is E. coli TG1. Described as above. Type of test: cell-based, Escherichia coli. As to conditions: Escherichia coli. On the procedure: as §1
For test [4], the system named is E. coli TG1 + P. aeruginosa PA14. Briefly: Mixed-species E. coli-P. aeruginosa biofilm assay (peg, crystal violet). The format is cell-based, Escherichia coli + Pseudomonas aeruginosa. On the procedure: Overnight cultures of E. coli TG1 and P. aeruginosa PA14 were diluted 1/100 in the same vial of TSB diluted 1/20 to form a mixed-culture suspension. Next, 2-fold serial dilutions of the compounds (dissolved in 100% DMSO or ethanol) in 100 μl liquid broth (TSB diluted 1/20) per well were prepared in the microtiter plate of the Calgary biofilm device (Nunc no. 269789) in duplicate or triplicate with a maximum concentration of 1,600 μM and a minimum concentration of 0.8 μM. One hundred microliters of the mixed-culture suspension was added to each well of the microtiter plate, resulting in a total volume of 200 μl medium per well (final concentration range of compounds, 800 μM [2% DMSO or ethanol] to 0.4 μM [0.001% DMSO or ethanol]). The pegged lid was placed on the microtiter plate, and the plate was incubated for 72 h at 37°C, which allowed biofilm formation on the pegs (Nunc no. 269789) of the Calgary biofilm device. After 72 h, the biofilm was colored with crystal violet as described above ([74]). The OD570 (biofilm cells) and OD600 (planktonic cells) were measured, and the BIC50 and the IC50, respectively, were calculated.

Test [5] has as its system S. aureus ATCC 6538 + S. epidermidis. The experiment in a line: Mixed-species S. aureus-S. epidermidis biofilm assay (peg, crystal violet). The format is cell-based, Staphylococcus aureus + Staphylococcus epidermidis. The note with it: 37°C. How it is done: Overnight cultures of S. aureus ATCC 6538 and S. epidermidis were grown in LB medium and were diluted 1/200 in the same vial of TSB to form a mixed-culture suspension. Next, 2-fold serial dilutions of the compounds (dissolved in 100% DMSO or ethanol) in 100 μl TSB medium per well were prepared in the microtiter plate (Nunc no. 269789) in duplicate or triplicate with a maximum concentration of 1,600 μM and a minimum concentration of 0.8 μM. One hundred microliters of the mixed-culture suspension was added to each well of the microtiter plate, resulting in a total volume of 200 μl medium per well (final concentration range of compounds, 800 μM [2% DMSO or ethanol] to 0.4 μM [0.001% DMSO or ethanol]). The cells were then incubated for 48 h at 37°C, which allowed biofilm formation on the pegs (Nunc no. 269789) of the Calgary biofilm device. After 24 h, fresh medium with compounds was added to the wells, and after 48 h, the biofilm was colored with crystal violet as described above ([74]). The OD570 (biofilm) and OD600 (planktonic) were measured, and the BIC50 and the IC50, respectively, were calculated.

Setting [6] is: Staphylococcus aureus, ATCC6538, read-out: BIC50 (concentration needed to inhibit biofilm formation by 50%), S. aureus ATCC 6538, 37°C.
Setting [7] is: Staphylococcus aureus, ATCC6538, read-out: IC50 (concentration needed to inhibit planktonic growth by 50%), S. aureus ATCC 6538, 37°C, planktonic OD600.
The mark [8] stands for this setting: PA14, P. aeruginosa PA14, 25°C, read-out: BIC50.
[9] abbreviates: PA14, P. aeruginosa PA14, 37°C, read-out: BIC50.
[10] abbreviates: PA14, P. aeruginosa PA14, 37°C, read-out: IC50 (planktonic growth).
[11] abbreviates: TG1, E. coli TG1, 37°C, read-out: BIC50.
Where [12] appears, read: TG1, E. coli TG1, 37°C, read-out: IC50 (planktonic growth).
Where [13] appears, read: 72 h, mixed E. coli TG1 + P. aeruginosa PA14, 37°C, read-out: IC50 (planktonic growth).
[14] abbreviates: 72 h, mixed E. coli TG1 + P. aeruginosa PA14 biofilm, 37°C, read-out: BIC50.
[15] abbreviates: 48 h, mixed S. aureus ATCC 6538 + S. epidermidis biofilm, read-out: BIC50.
Setting [16] is: 48 h, mixed S. aureus ATCC 6538 + S. epidermidis, read-out: IC50 (planktonic growth).
[17] abbreviates: PA14, P. aeruginosa PA14, 25°C, read-out: IC50 (planktonic growth).
[18] abbreviates: Staphylococcus aureus, ATCC6538, S. aureus ATCC 6538, 37°C, planktonic OD600, read-out: IC50 (concentration needed to inhibit planktonic growth by 50%).
The mark [19] stands for this setting: Staphylococcus aureus, ATCC6538, S. aureus ATCC 6538, 37°C, read-out: BIC50 (concentration needed to inhibit biofilm formation by 50%).
Setting [20] is: TG1, E. coli TG1, 25°C, read-out: BIC50.
The mark [21] stands for this setting: TG1, E. coli TG1, 25°C, read-out: IC50 (planktonic growth).
Setting [22] is: mixed E. coli TG1 + P. aeruginosa PA14, 37°C, read-out: IC50 (planktonic growth).
[23] abbreviates: mixed E. coli TG1 + P. aeruginosa PA14 biofilm, 37°C, read-out: BIC50.
[24] abbreviates: mixed S. aureus ATCC 6538 + S. epidermidis, read-out: IC50 (planktonic growth).

Read-outs that look alike come from different tables or passages of the source.

`CCCCCn1c(-c2ccccc2)cnc1N` [Compound 1]: the IC50 in test [1] (setting [6]) was 59.3 µM; in test [1] (setting [7]), 231 µM; in test [2] (setting [8]), 2.1 µM; in test [2] (setting [9]), 104 µM; in test [2] (setting [10]), 45.2 µM; in test [3] (setting [11]), ~47.8 µM. In addition, the IC50 in test [3] (setting [12]) was 34.1 µM; in test [4] (setting [13]), 60.7 µM; in test [4] (setting [14]), 74.3 µM; in test [5] (setting [15]) it was 44.2 µM; in test [5] (setting [16]), ~356 µM.
Consider `CCCCCCCCn1c(-c2ccc(Cl)cc2)cnc1N` [Compound 2], for which the IC50 in test [1] (setting [6]) was 2 to 6 µM; in test [1] (setting [7]) it was 7.8 µM; in test [1] (read-out: BIC50 (concentration needed to inhibit biofilm formation by 50%), S. aureus ATCC 6538, 37°C) it was 2.8 µM; in test [2] (setting [8]), 4 µM; in test [2] (setting [9]), 118 µM; in test [2] (setting [10]), 10 µM. In addition, the IC50 in test [3] (setting [11]) is ~6.5 µM; in test [3] (setting [12]) it was 7.7 µM; in test [4] (setting [13]) it was 19.9 µM; in test [4] (setting [14]) it was 36.8 µM; in test [5] (setting [15]), ~7.2 µM; in test [5] (setting [16]), ~9.9 µM.
For the molecule `CC(C)CNc1ncc(-c2ccc(Cl)cc2)[nH]1` [Compound 3], the IC50 is 95.3 µM in test [1] (setting [6]); ~96.1 µM in test [1] (setting [7]); 0.9 µM in test [2] (setting [8]); > 400 µM in test [2] (setting [9]); > 400 µM in test [2] (setting [10]); 110 µM in test [3] (setting [11]). The IC50 was 30 µM in test [3] (setting [12]); > 400 µM in test [4] (setting [13]); 7.4 µM in test [4] (setting [14]); ~26.3 µM in test [5] (setting [15]); ~140 µM in test [5] (setting [16]).
In the case of `CCCCNc1ncc(-c2ccc(Br)cc2)[nH]1` [Compound 4], the IC50 in test [1] (setting [6]) is ~12.3 µM; in test [1] (setting [7]), 60.1 µM; in test [2] (setting [8]), 9.8 µM; in test [2] (setting [9]), > 400 µM; in test [2] (setting [10]), > 400 µM; in test [3] (setting [11]) it was 84.7 µM. Further, the IC50 was 23 µM in test [3] (setting [12]); > 400 µM in test [4] (setting [13]); 17.8 µM in test [4] (setting [14]); 6.8 µM in test [5] (setting [15]); ~118 µM in test [5] (setting [16]).
With `Clc1ccc(-c2cnc(NC3CCCC3)[nH]2)cc1` [Compound 5], the IC50 in test [1] (setting [6]) was 34.4 µM; in test [1] (setting [7]), 62.3 µM; in test [2] (setting [8]), 13.5 µM; in test [2] (setting [9]) it was > 400 µM; in test [2] (setting [10]), > 400 µM; in test [3] (setting [11]) it was ~45.7 µM. In addition, the IC50 was 17.1 µM in test [3] (setting [12]); > 400 µM in test [4] (setting [13]); 0.5 µM in test [4] (setting [14]); ~66.6 µM in test [5] (setting [15]); ~91.7 µM in test [5] (setting [16]).
Take `Brc1ccc(-c2cnc(NCCn3cc(C4CC4)nn3)[nH]2)cc1` [Compound 6]: the IC50 is 75.2 µM in test [1] (setting [6]); > 400 µM in test [1] (setting [7]); 71.6 µM in test [2] (setting [8]); > 400 µM in test [2] (setting [17]); > 400 µM in test [2] (setting [9]); > 400 µM in test [2] (setting [10]). In addition, the IC50 in test [3] (setting [11]) was ~192 µM; in test [3] (setting [12]), 183 µM; in test [4] (setting [13]), > 400 µM; in test [4] (setting [14]), 34.6 µM; in test [5] (setting [15]), 33.9 µM; in test [5] (setting [16]), ~392 µM.
As to `CCCCCCCCn1c(-c2ccccc2)cnc1NCC(C)C` [Compound 8a], the IC50 is 17.9 µM in test [1] (setting [18]); ~22.9 µM in test [1] (setting [19]); > 400 µM in test [2] (setting [8]); 75.3 µM in test [2] (setting [17]); > 400 µM in test [2] (setting [9]); 66 µM in test [2] (setting [10]). Further, the IC50 in test [3] (setting [20]) was ~47.2 µM; in test [3] (setting [21]) it was 51.2 µM; in test [3] (setting [11]), 41.2 µM; in test [3] (setting [12]) it was 10.2 µM; in test [4] (setting [22]), > 400 µM; in test [4] (setting [23]), 6.6 µM. For the same molecule, in test [5] (setting [24]), the IC50 is ~26.1 µM.
`CCCCCCCCn1c(-c2ccc(Cl)cc2)cnc1NCC(C)C` [Compound 8b]: the IC50 in test [1] (setting [18]) was 9.3 µM; in test [1] (setting [19]) it was 5.8 µM; in test [2] (setting [8]), > 400 µM; in test [2] (setting [17]), 222 µM; in test [2] (setting [9]) it was > 400 µM; in test [2] (setting [10]) it was 115 µM. In addition, the IC50 was 29.5 µM in test [3] (setting [20]); 91.9 µM in test [3] (setting [21]); 330 µM in test [3] (setting [11]); 6.1 µM in test [3] (setting [12]); > 400 µM in test [4] (setting [22]); > 400 µM in test [4] (setting [23]). The IC50 was 1.1 µM in test [5] (mixed S. aureus ATCC 6538 + S. epidermidis biofilm, read-out: BIC50) and ~22.2 µM in test [5] (setting [24]).
